Laboratory results as given in ChEMBL document CHEMBL5550206, “Identification of 6-Fluorine-Substituted Coumarin Analogues as POLRMT Inhibitors with High Potency and Safety for Treatment of Pancreatic Cancer” (J Med Chem, 2024).
pIC50: −log10 of the molar value. Active and inactive are the calls of the source. No cut-off for these calls is given here.

Columns and labels:
[1] = molecular target: DNA-directed RNA polymerase, mitochondrial (Homo sapiens) (UniProt O00411); experiment: Inhibition of human POLRMT in human MIA PaCa-2 cells assessed as mitochondria coded ubiquinone oxidoreductase core subunit 1 (ND I) transcript level at 500 nM measured after 24 hrs by RT-qPCR analysis relative to control; design: scale not given: the % may be the effect or the level left
DNA-directed RNA polymerase, mitochondrial (Homo sapiens), sequence (O00411 whole entry): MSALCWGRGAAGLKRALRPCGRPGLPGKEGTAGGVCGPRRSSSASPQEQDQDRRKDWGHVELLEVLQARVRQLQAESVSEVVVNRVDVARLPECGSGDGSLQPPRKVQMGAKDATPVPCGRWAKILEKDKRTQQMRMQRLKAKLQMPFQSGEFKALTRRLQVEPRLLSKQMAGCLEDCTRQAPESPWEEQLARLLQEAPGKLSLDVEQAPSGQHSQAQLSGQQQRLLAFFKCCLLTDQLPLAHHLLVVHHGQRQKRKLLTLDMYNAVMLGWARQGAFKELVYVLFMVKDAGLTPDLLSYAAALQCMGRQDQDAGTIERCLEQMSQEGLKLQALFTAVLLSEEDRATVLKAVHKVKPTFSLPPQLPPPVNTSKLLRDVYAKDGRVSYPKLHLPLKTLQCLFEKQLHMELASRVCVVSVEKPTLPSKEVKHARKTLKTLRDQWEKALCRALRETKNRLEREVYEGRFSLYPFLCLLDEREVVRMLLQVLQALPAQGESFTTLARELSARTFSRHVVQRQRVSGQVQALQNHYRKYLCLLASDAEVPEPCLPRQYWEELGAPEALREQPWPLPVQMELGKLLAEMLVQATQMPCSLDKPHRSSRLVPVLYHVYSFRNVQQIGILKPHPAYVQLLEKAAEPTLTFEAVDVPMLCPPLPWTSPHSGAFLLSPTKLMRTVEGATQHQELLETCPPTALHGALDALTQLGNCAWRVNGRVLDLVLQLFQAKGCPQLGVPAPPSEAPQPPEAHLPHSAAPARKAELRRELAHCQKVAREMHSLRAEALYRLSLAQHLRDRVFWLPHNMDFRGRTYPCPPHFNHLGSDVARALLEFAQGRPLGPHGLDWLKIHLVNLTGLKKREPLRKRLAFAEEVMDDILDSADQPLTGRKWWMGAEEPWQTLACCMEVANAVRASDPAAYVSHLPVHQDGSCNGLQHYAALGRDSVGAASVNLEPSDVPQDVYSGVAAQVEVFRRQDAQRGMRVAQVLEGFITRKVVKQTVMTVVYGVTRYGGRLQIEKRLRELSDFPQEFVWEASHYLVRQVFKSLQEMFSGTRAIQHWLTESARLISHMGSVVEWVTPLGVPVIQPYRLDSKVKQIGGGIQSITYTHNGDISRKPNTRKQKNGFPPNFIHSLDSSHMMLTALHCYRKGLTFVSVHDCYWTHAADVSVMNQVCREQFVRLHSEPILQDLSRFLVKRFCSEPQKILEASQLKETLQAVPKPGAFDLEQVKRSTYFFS

MIA PaCa-2 [2] = experiment: Down-regulation of ND1 gene expression in human MIA PaCa-2 cells at 0.1 to 1 uM measured after 12 hrs by RT-qPCR analysis; format: functional, cell-based; conditions: dose 0.1-1 µM
MIA PaCa-2 [3] = experiment: Down-regulation of COX1 gene expression in human MIA PaCa-2 cells at 0.1 to 1 uM measured after 12 hrs by RT-qPCR analysis; format: functional, cell-based; conditions: dose 0.1-1 µM
MIA PaCa-2 [4] = experiment: Inhibition of RNA pol I in human MIA PaCa-2 cells assessed as effect on 18S RNA level at 0.1 to 1 uM measured after 12 hrs by RT-qPCR analysis; format: cell-based; conditions: dose 0.1-1 µM
[5] = molecular target: DNA-directed RNA polymerase, mitochondrial (Homo sapiens) (UniProt O00411); experiment: Inhibition of human POLRMT in human MIA PaCa-2 cells assessed as inhibition of mitochondria coded ubiquinone oxidoreductase core subunit 1 (ND I) transcript level measured after 12 hrs by RT-qPCR analysis; conditions: dose 0.001-5 µM
MIA PaCa-2 [6] = experiment: Reduction of protein complexes of mitochondrial electron transport chain in human MIA PaCa-2 cells reduction in NDUFB8 protein level by Western blot analysis; format: functional, cell-based; conditions: dose 0.001-5 µM
MIA PaCa-2 [7] = experiment: Reduction of protein complexes of mitochondrial electron transport chain in human MIA PaCa-2 cells reduction in UQCRC2 protein level by Western blot analysis; format: functional, cell-based; conditions: dose 0.001-5 µM
MIA PaCa-2 [8] = experiment: Effect on SDHB protein complexes in human MIA PaCa-2 cells reduction in NDUFB8 protein level at 0.01 to 10 uM by Western blot analysis; format: functional, cell-based; conditions: dose 0.01-10 µM
MIA PaCa-2 [9] = experiment: Inhibition of colony formation in human MIA PaCa-2 cells assessed as decrease in size of colony at 5 nM incubated for 14 days by crystal violet staining based assay; format: functional, cell-based; conditions: time 14.0 day
MIA PaCa-2 [10] = experiment: Induction of cell arrest in human MIA PaCa-2 cells assessed as accumulation of cells at G1 phase at 25 nM measured after 96 hrs by PI staining based flow cytometry (reference value: 64%); format: functional
MIA PaCa-2 [11] = experiment: Induction of cell arrest in human MIA PaCa-2 cells assessed as accumulation of cells at S phase at 200 nM measured after 96 hrs by PI staining based flow cytometry (reference value: 16.8%); format: functional
MIA PaCa-2 [12] = experiment: Induction of cell arrest in human MIA PaCa-2 cells assessed as accumulation of cells at G2 phase at 200 nM measured after 96 hrs by PI staining based flow cytometry (reference value: 11.2%); format: functional
MIA PaCa-2 [13] = experiment: Induction of cell arrest in human MIA PaCa-2 cells assessed as accumulation of cells at S phase at 500 nM measured after 96 hrs by PI staining based flow cytometry (reference value: 16.8%); format: functional
MIA PaCa-2 [14] = experiment: Induction of cell arrest in human MIA PaCa-2 cells assessed as accumulation of cells at G2 phase at 500 nM measured after 96 hrs by PI staining based flow cytometry (reference value: 11.2%); format: functional
MIA PaCa-2 [15] = experiment: Induction of cell arrest in human MIA PaCa-2 cells assessed as viable cells at 25 nM measured after 4 days by Annexin V-FITC and propidium iodide (PI) staining based assay (reference value: 94.9%); format: functional; conditions: MIA PaCa-2, 96 h, time 4 day, read-out: Activity
MIA PaCa-2 [16] = experiment: Induction of cell arrest in human MIA PaCa-2 cells assessed as early apoptotic cells at 25 nM measured after 4 days by Annexin V-FITC and propidium iodide (PI) staining based assay (reference value: 1.07%); format: functional; conditions: time 4 day
MIA PaCa-2 [17] = experiment: Induction of cell arrest in human MIA PaCa-2 cells assessed as necrotic cells at 25 nM measured after 4 days by Annexin V-FITC and propidium iodide (PI) staining based assay (reference value: 0.82%); format: functional; conditions: time 4 day
MIA PaCa-2 [18] = experiment: Induction of cell arrest in human MIA PaCa-2 cells assessed as viable cells at 50 nM measured after 4 days by Annexin V-FITC and propidium iodide (PI) staining based assay (reference value: 94.9%); format: functional; conditions: MIA PaCa-2, 96 h, time 4 day, read-out: Activity
MIA PaCa-2 [19] = experiment: Induction of cell arrest in human MIA PaCa-2 cells assessed as early apoptotic cells at 50 nM measured after 4 days by Annexin V-FITC and propidium iodide (PI) staining based assay (reference value: 1.07%); format: functional; conditions: time 4 day
MIA PaCa-2 [20] = experiment: Induction of cell arrest in human MIA PaCa-2 cells assessed as necrotic cells at 50 nM measured after 4 days by Annexin V-FITC and propidium iodide (PI) staining based assay (reference value: 0.82%); format: functional; conditions: time 4 day
MIA PaCa-2 [21] = experiment: Induction of cell arrest in human MIA PaCa-2 cells assessed as late apoptotic cells at 200 nM measured after 4 days by Annexin V-FITC and propidium iodide (PI) staining based assay (reference value: 3.23%); format: functional; conditions: time 4 day
MIA PaCa-2 [22] = experiment: Effect on mitochondrial membrane potential loss in human MIA PaCa-2 cells assessed as change in membrane potential at 0.1 to 5 uM incubated for 96 hrs by JC-1 staining based flow cytometry analysis; format: functional, cell-based; conditions: dose 0.1-5 µM
MIA PaCa-2 [23] = experiment: Reduction in basal oxygen consumption rate (OCR) in human MIA PaCa-2 cells incubated for 168 hrs; format: functional, cell-based; conditions: dose 1-200 nM
MIA PaCa-2 [24] = experiment: Reduction in spare oxygen consumption rate (OCR) in human MIA PaCa-2 cells incubated for 168 hrs; format: functional, cell-based; conditions: dose 1-200 nM
MIA PaCa-2 [25] = experiment: Induction of senescence in human MIA PaCa-2 cells at 50 to 1000 nM measured after 96 hrs by beta-galactosidase staining based assay; format: functional, cell-based; conditions: dose 50-1000 nM
[26] = Antiproliferative activity against human […] cells assessed as cell viability measured after 168 hrs incubation by SRB assay; format: functional, cell-based
MIA PaCa-2 [27] = experiment: In vivo antitumor activity against human MIA PaCa-2 cells xenografted in BALB/c mouse assessed as reduction in tumor weight at 25 mg/kg, iv once daily for 25 consecutive day after 2 weeks of cells injection relative to control; format: functional; conditions: MIA PaCa-2, 600 h, time 25 day
MIA PaCa-2 [28] = experiment: In vivo antitumor activity against human MIA PaCa-2 cells xenografted in BALB/c mouse assessed as reduction in tumor weight at 100 mg/kg, iv once daily for 25 consecutive day after 2 weeks of cells injection relative to control; format: functional; conditions: MIA PaCa-2, 600 h, time 25 day
[29] = Toxicity in BALB/c mouse xenografted with human MIA PaCa-2 cells assessed as pathological change in heart at 25 to 100 mg/kg, iv once daily for 25 consecutive day after 2 weeks of cells injection by H and E staining based optical microscopic analysis; format: organism-based; conditions: in vivo, 336 h, dose 25-100 mg/kg
[30] = Toxicity in BALB/c mouse xenografted with human MIA PaCa-2 cells assessed as pathological change in spleen at 25 to 100 mg/kg, iv once daily for 25 consecutive day after 2 weeks of cells injection by H and E staining based optical microscopic analysis; format: organism-based; conditions: in vivo, 336 h, dose 25-100 mg/kg
[31] = Toxicity in BALB/c mouse xenografted with human MIA PaCa-2 cells assessed as pathological change in lung at 25 to 100 mg/kg, iv once daily for 25 consecutive day after 2 weeks of cells injection by H and E staining based optical microscopic analysis; format: organism-based; conditions: in vivo, 336 h, dose 25-100 mg/kg

Q: For CCN(CC)C(=O)[C@@H](C)Oc1cc2oc(=O)cc(-c3ccccc3C)c2cc1F, which Activity [1] is on record?
A: Its Activity is 9%.

Q: What about the Activity (MIA PaCa-2 [2]) of the same molecule?
A: The Activity was “Active”.

Q: What about the Activity (MIA PaCa-2 [3]) of the same molecule?
A: Its Activity is “Active”.

Q: And the inhibition (MIA PaCa-2 [4])?
A: The inhibition was “inactive”.

Q: And the inhibition [5]?
A: Its inhibition is “Dose-Dependent Effect”.

Q: And the Activity (MIA PaCa-2 [6])?
A: Its Activity is “Dose-Dependent Effect”.

Q: And the Activity (MIA PaCa-2 [7])?
A: The Activity was “Dose-Dependent Effect”.

Q: And the Activity (MIA PaCa-2 [8])?
A: Its Activity is “inactive”.

Q: What about the inhibition (MIA PaCa-2 [9]) of the same molecule?
A: The inhibition was “Active”.

Q: What about the Activity (MIA PaCa-2 [10]) of the same molecule?
A: The Activity was 65.5%.

Q: What about the Activity (MIA PaCa-2 [11]) of the same molecule?
A: Its Activity is 17%.

Q: And the Activity (MIA PaCa-2 [12])?
A: Its Activity is 13%.

Q: What about the Activity (MIA PaCa-2 [13]) of the same molecule?
A: Its Activity is 17.6%.

Q: And the Activity (MIA PaCa-2 [14])?
A: The Activity was 11.6%.

Q: And the viability at 0.025 µM (MIA PaCa-2 [15])?
A: The viability at 0.025 µM was 94.5%.

Q: And the Activity (MIA PaCa-2 [16])?
A: Its Activity is 1.4%.

Q: And the Activity (MIA PaCa-2 [17])?
A: The Activity was 0.82%.

Q: What about the viability at 0.05 µM (MIA PaCa-2 [18]) of the same molecule?
A: The viability at 0.05 µM was 94.1%.

Q: What about the Activity (MIA PaCa-2 [19]) of the same molecule?
A: Its Activity is 1.08%.

Q: What about the Activity (MIA PaCa-2 [20]) of the same molecule?
A: The Activity was 0.76%.

Q: And the Activity (MIA PaCa-2 [21])?
A: The Activity was 3.94%.

Q: What about the Activity (MIA PaCa-2 [22]) of the same molecule?
A: Its Activity is “inactive”.

Q: And the Activity (MIA PaCa-2 [23])?
A: Its Activity is “Dose-Dependent Effect”.

Q: What about the Activity (MIA PaCa-2 [24]) of the same molecule?
A: The Activity was “Dose-Dependent Effect”.

Q: What about the Activity (MIA PaCa-2 [25]) of the same molecule?
A: Its Activity is “inactive”.

Q: What about the pIC50 [26] of the same molecule?
A: The pIC50 was 8.40.

Q: What about the inhibition in vivo at 25 mg/kg (MIA PaCa-2 [27]) of the same molecule?
A: The inhibition in vivo at 25 mg/kg was 45.2%.

Q: And the inhibition in vivo at 100 mg/kg (MIA PaCa-2 [28])?
A: Its inhibition in vivo at 100 mg/kg is 64.5%.

Q: What about the Activity [29] of the same molecule?
A: Its Activity is “Non-Toxic”.

Q: And the Activity [30]?
A: Its Activity is “Non-Toxic”.

Q: What about the Activity [31] of the same molecule?
A: The Activity was “Non-Toxic”.
